Experimental data reported in US9944645B2, “Imidazotriazines and imidazopyrimidines as kinase inhibitors” (Incyte Holdings Corporation, priority 2006, dated 2018).
pIC50: −log10 of the molar value.

What follows are molecules tested against c-Met kinase (h-Met; histidine-tagged c-Met catalytic domain fusion protein) (Homo sapiens (Human), UniProt P08581) (assay: In Vitro c-Met Kinase Enzyme Assays). Settings: phosphorylation of poly Glu-Tyr, 5 μM ATP, 25 minutes at 30° C.
Type: biochemical
Outline: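 His-tagged c-Met catalytic domain reacted 25 min at 30° C, within the linear initial-rate range. Phosphotyrosine detected by ELISA with peroxidase-labeled anti-phospho-tyrosine antibody and TMB, OD read at 450 nm (540 nm correction); IC50 from curve fit.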

Sequence of c-Met kinase (h-Met; histidine-tagged c-Met catalytic domain fusion protein) (P08581 1078-1345): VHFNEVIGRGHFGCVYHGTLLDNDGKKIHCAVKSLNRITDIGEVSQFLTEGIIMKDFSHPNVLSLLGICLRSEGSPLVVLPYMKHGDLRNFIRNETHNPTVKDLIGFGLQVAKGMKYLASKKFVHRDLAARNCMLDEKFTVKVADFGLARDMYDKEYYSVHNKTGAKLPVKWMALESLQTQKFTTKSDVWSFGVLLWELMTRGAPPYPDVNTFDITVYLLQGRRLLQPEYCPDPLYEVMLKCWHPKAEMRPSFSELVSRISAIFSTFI

pIC50, > 6.30:
COCC1(NC(=O)c2ccc(-c3cnc4ncc(Cc5ccc6ncccc6c5)n4n3)cc2F)CCC1 [Example 144, 2-Fluoro-N-[1-(methoxymethyl)cyclobutyl]-4-[7-(quinolin-6-ylmethyl)imidazo[1,2-b][1,2,4]triazin-2-yl]benzamide]
COCC1(NC(=O)c2ccc(-c3cnc4ncc(C5(c6ccc7ncccc7c6)CC5)n4n3)cc2)CCC1 [Example 116, N-[1-(Methoxymethyl)cyclobutyl]-4-[7-(1-quinolin-6-ylcyclopropyl)imidazo[1,2-b][1,2,4]triazin-2-yl]benzamide]
CCNC(=O)C1(c2ccc(-c3cnc4ncc(C5(c6ccc7ncccc7c6)CC5)n4c3)cc2)CC1 [Example 187, N-Ethyl-1-{4-[3-(1-quinolin-6-ylcyclopropyl)imidazo[1,2-a]pyrimidin-6-yl]phenyl}cyclopropanecarboxamide]
COc1ccc(C2(c3cnc4ncc(-c5ccc(F)cc5)cn34)CC2)cc1 [Example 5, 6-(4-Fluorophenyl)-3-(1-(4-methoxyphenyl)cyclopropyl)imidazo[1,2-a]pyrimidine]
CC(C)(C)[C@H](NC(=O)c1ccc(-c2cnc3ncc(Cc4ccc5ncccc5c4)n3n2)cc1F)C(=O)N1CCC1 [Example 133, N-[(1S)-1-(Azetidin-1-ylcarbonyl)-2,2-dimethylpropyl]-2-fluoro-4-[7-(quinolin-6-ylmethyl)imidazo[1,2-b][1,2,4]triazin-2-yl]benzamide]
N#CC1CCN(C(=O)c2ccc(-c3cnc4ncc(C5(c6ccc7ncccc7c6)CC5)n4c3)cc2)C1 (stereo in doubt) [Example 52, (3R)-1-{4-[3-(1-Quinolin-6-ylcyclopropyl)imidazo[1,2-a]pyrimidin-6-yl]benzoyl}pyrrolidine-3-carbonitrile]
O=C(c1ccc(-c2cnc3ncc(C4(c5ccc6ncccc6c5)CC4)n3c2)cc1Cl)N1CCC1 [Example 178, 6-(1-{6-[4-(Azetidin-1-ylcarbonyl)-3-chlorophenyl]imidazo[1,2-a]pyrimidin-3-yl}cyclopropyl)quinoline]
Fc1cc(-c2cnc3ncc(Cc4ccc5ncccc5c4)n3n2)ccc1-n1ccnc1 [Example 129, 6-{2-[3-Fluoro-4-(1H-imidazol-1-yl)phenyl]imidazo[1,2-b][1,2,4]triazin-7-ylmethyl}quinoline]
O=C(N[C@H]1CC[C@H](O)CC1)c1ccc(-c2cnc3ncc(Cc4ccc5ncccc5c4)n3n2)cc1F [Example 128, 2-Fluoro-N-(trans-4-hydroxycyclohexyl)-4-[7-(quinolin-6-ylmethyl)imidazo[1,2-b][1,2,4]triazin-2-yl]benzamide]
CN(C)C(=O)C(O)c1ccc(-c2cnc3ncc(C4(c5ccc6ncccc6c5)CC4)n3c2)cc1F (stereo not shown) [Example 191, 2-{2-fluoro-4-[3-(1-quinolin-6-ylcyclopropyl)imidazo[1,2-a]pyrimidin-6-yl]phenyl}-2-hydroxy-N,N-dimethylacetamide]
CN(C)C(=O)C1(NC(=O)c2ccc(-c3cnc4ncc(C5(c6ccc7ncccc7c6)CC5)n4c3)cc2)CCC1 [Example 57, N-1-[(Dimethylamino)carbonyl]cyclobutyl-4-[3-(1-quinolin-6-ylcyclopropyl)imidazo[1,2-a]pyrimidin-6-yl]benzamide]
CC(NC(=O)c1ccc(-c2cnc3ncc(Cc4ccc5ncccc5c4)n3n2)cc1F)c1cccnc1 (stereo not shown) [Example 155, 2-Fluoro-N-(1-pyridin-3-ylethyl)-4-[7-(quinolin-6-ylmethyl)imidazo[1,2-b][1,2,4]triazin-2-yl]benzamide]
O=C(N[C@H]1CC[C@H](O)CC1)c1cc(F)c(-c2cnc3ncc(C4(c5ccc6ncccc6c5)CC4)n3c2)cc1F [Example 80, 2,5-Difluoro-N-(trans-4-hydroxycyclohexyl)-4-[3-(1-quinolin-6-ylcyclopropyl)imidazo[1,2-a]pyrimidin-6-yl]benzamide]
O[C@@H]1CCN(Cc2ccc(-c3cnc4ncc(C5(c6ccc7ncccc7c6)CC5)n4c3)cc2F)C1 [Example 68, (3R)-1-{2-Fluoro-4-[3-(1-quinolin-6-ylcyclopropyl)imidazo[1,2-a]pyrimidin-6-yl]benzyl}pyrrolidin-3-ol]
O=C(N[C@H]1CCC[C@@H]1O)c1ccc(-c2cnc3ncc(Cc4ccc5ncccc5c4)n3n2)cc1F [Example 142, 2-Fluoro-N-[(1S,2S)-2-hydroxycyclopentyl]-4-[7-(quinolin-6-ylmethyl)imidazo[1,2-b][1,2,4]triazin-2-yl]benzamide]
O=C(NCCc1ccccn1)c1ccc(-c2cnc3ncc(Cc4ccc5ncccc5c4)n3n2)cc1F [Example 154, 2-Fluoro-N-(2-pyridin-2-ylethyl)-4-[7-(quinolin-6-ylmethyl)imidazo[1,2-b][1,2,4]triazin-2-yl]benzamide]
O=C(NCC1CCOCC1)c1ccc(-c2cnc3ncc(Cc4ccc5ncccc5c4)n3n2)cc1F [Example 147, 2-Fluoro-4-[7-(quinolin-6-ylmethyl)imidazo[1,2-b][1,2,4]triazin-2-yl]-N-(tetrahydro-2H-pyran-4-ylmethyl)benzamide]
COCC(C)N1Cc2cc(-c3cnc4ncc(C5(c6ccc7ncccc7c6)CC5)n4c3)ccc2C1=O (stereo not shown) [Example 184, 2-(2-Methoxy-1-methylethyl)-5-[3-(1-quinolin-6-ylcyclopropyl)imidazo[1,2-a]pyrimidin-6-yl]isoindolin-1-one]
COc1ccc(Sc2cnc3ncc(-c4ccc(Br)cc4)cn23)cc1 [Example 19, 6-(4-bromophenyl)-3-[(4-methoxyphenyl)thio]imidazo[1,2-a]pyrimidine]
CNC(=O)c1ccc(-c2cnc3ncc(Sc4ccc(OC)cc4)n3c2)cc1F [Example 9, 2-Fluoro-4-(3-[(4-methoxyphenyl)thio]imidazo[1,2-a]pyrimidin-6-yl)-N-methylbenzamide]
O=C(c1ccc(-c2cnc3ncc(C4(c5ccc6ncccc6c5)CC4)n3c2)cc1)N1CCC1 [Example 29, 6-(1-{6-[4-(Azetidin-1-ylcarbonyl)phenyl]imidazo[1,2-a]pyrimidin-3-yl}cyclopropyl)quinoline]
COC(=O)N1CCC(n2cc(-c3cnc4ncc(Cc5ccc6ncccc6c5)n4n3)cn2)CC1 [Example 141, Methyl 4-{4-[7-(quinolin-6-ylmethyl)imidazo[1,2-b][1,2,4]triazin-2-yl]-1H-pyrazol-1-yl}piperidine-1-carboxylate]
NC(=O)c1ccc(-c2cnc3ncc(Cc4ccc5ncccc5c4)n3n2)cc1F [Example 127, 2-Fluoro-4-[7-(quinolin-6-ylmethyl)imidazo[1,2-b][1,2,4]triazin-2-yl]benzamide]
COC(=O)N1CCN(c2ccc(-c3cnc4ncc(C5(c6ccc7ncccc7c6)CC5)n4c3)cn2)CC1 [Example 53, Methyl 4-{5-[3-(1-quinolin-6-ylcyclopropyl)imidazo[1,2-a]pyrimidin-6-yl]pyridin-2-yl}piperazine-1-carboxylate]
CC(NC(=O)c1ccc(-c2cnc3ncc(C4(c5ccc6ncccc6c5)CC4)n3c2)cc1Cl)c1ccccn1 (stereo not shown) [Example 177, 2-Chloro-N-(1-pyridin-2-ylethyl)-4-[3-(1-quinolin-6-ylcyclopropyl)imidazo[1,2-a]pyrimidin-6-yl]benzamide]
NC(=O)c1cc(F)c(-c2cnc3ncc(C4(c5ccc6ncccc6c5)CC4)n3c2)cc1F [Example 78, 2,5-Difluoro-4-[3-(1-quinolin-6-ylcyclopropyl)imidazo[1,2-a]pyrimidin-6-yl]benzamide]
CN(C)C(=O)[C@@H](NC(=O)c1ccc(-c2cnc3ncc(Cc4ccc5ncccc5c4)n3n2)cc1F)C(C)(C)C [Example 132, N-(1S)-1-[(Dimethylamino)carbonyl]-2,2-dimethylpropyl-2-fluoro-4-[7-(quinolin-6-ylmethyl)imidazo[1,2-b][1,2,4]triazin-2-yl]benzamide]
COc1ccc(Sc2cnc3ncc(-c4ccc(F)cc4)nn23)cc1 [Example 20, 2-(4-fluorophenyl)-7-[(4-methoxyphenyl)thio]imidazo[1,2-b][1,2,4]triazine]
CNC(=O)c1ccc(-c2ccc(-c3cnc4ncc(C5(c6ccc7ncccc7c6)CC5)n4c3)cc2F)cn1 [Example 85, 5-{2-Fluoro-4-[3-(1-quinolin-6-ylcyclopropyl)imidazo[1,2-a]pyrimidin-6-yl]phenyl}-N-methylpyridine-2-carboxamide]
COc1ccc(Cc2cnc3ncc(-c4ccc(F)cc4)cn23)cc1 [Example 4, 6-(4-Fluorophenyl)-3-(4-methoxybenzyl)imidazo[1,2-a]pyrimidine]
CCOC(=O)N1CCC(n2cc(-c3cnc4ncc(C5(c6ccc7ncccc7c6)CC5)n4c3)cn2)CC1 [Example 83, Ethyl 4-{4-[3-(1-quinolin-6-ylcyclopropyl)imidazo[1,2-a]pyrimidin-6-yl]-1H-pyrazol-1-yl}piperidine-1-carboxylate]
CC(NC(=O)C1(c2ccc(-c3cnc4ncc(C5(c6ccc7ncccc7c6)CC5)n4c3)cc2)CC1)c1ccccn1 (stereo not shown) [Example 188, N-(1-Pyridin-2-ylethyl)-1-{4-[3-(1-quinolin-6-ylcyclopropyl)imidazo[1,2-a]pyrimidin-6-yl]phenyl}cyclopropanecarboxamide]
Cn1cc(-c2cnc3ncc(C4(c5ccc6ncccc6c5)CC4)n3c2)cn1 [Example 90, 6-{1-[6-(1-Methyl-1H-pyrazol-4-yl)imidazo[1,2-a]pyrimidin-3-yl]cyclopropyl}quinoline]
CNC(=O)c1ccc(-c2cnc3ncc(C(C)c4ccc5ncccc5c4)n3n2)cc1F (stereo not shown) [Example 160, 2-Fluoro-N-methyl-4-[7-(1-quinolin-6-ylethyl)imidazo[1,2-b][1,2,4]triazin-2-yl]benzamide]
